This is an account of results in article PMC8831520, “Small molecule SWELL1 complex induction improves glycemic control and nonalcoholic fatty liver disease in murine Type 2 diabetes” (Nature Communications, 2022).

For assay [1], the target named is T1, ICl,SWELL (SWELL1-LRRC8 channel) in HEK-293 cells (Homo sapiens, UniProt Q8IWT6).
T1 construct: applied when the endogenous HEK-293 cell ICl,SWELL current density reached 30 pA/pF; endogenous in cells; host or cells: HEK-293 (ATCC, #CRL-1573)
T1 sequence (Q8IWT6 1-810): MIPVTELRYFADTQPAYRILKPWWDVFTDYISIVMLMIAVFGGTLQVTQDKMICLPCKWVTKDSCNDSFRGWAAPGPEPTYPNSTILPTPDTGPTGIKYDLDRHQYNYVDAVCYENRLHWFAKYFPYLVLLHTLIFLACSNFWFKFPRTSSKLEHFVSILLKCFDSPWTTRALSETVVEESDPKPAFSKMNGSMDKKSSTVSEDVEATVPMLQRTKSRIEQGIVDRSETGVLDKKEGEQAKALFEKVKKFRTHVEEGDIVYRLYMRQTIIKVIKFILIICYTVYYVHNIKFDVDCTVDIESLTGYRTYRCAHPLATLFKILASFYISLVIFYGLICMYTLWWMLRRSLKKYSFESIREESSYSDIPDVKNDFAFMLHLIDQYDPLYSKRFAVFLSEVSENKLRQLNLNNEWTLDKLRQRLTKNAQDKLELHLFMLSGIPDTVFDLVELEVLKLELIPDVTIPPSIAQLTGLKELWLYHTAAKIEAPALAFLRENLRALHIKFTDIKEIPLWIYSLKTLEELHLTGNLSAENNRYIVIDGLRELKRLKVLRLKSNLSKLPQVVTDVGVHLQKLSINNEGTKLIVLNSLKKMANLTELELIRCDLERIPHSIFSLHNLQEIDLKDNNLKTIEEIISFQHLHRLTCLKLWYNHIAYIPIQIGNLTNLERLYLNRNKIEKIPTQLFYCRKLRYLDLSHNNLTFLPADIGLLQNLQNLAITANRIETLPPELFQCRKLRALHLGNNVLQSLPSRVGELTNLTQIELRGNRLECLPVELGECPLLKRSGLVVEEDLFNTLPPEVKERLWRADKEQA
Put plainly: ICl,SWELL inhibition after hypotonic activation (open channel), patch-clamp. It counts as cell-based. The following applies: HEK-293 cells; for IC50: hypotonic (210 mOsm) stimulation, outward current, compound applied at 30 pA/pF, read-out: IC50 for ICl,SWELL inhibition. The procedure: Patch-clamp recordings of β-cells, 3T3-F442A adipocytes, and mature human adipocytes were performed as described previously[24],[28]. Briefly, all patch-clamp experiments were conducted at room temperature using either an Axopatch 200B amplifier or a MultiClamp 700B amplifier paired to a Digidata 1550 digitizer. Data were acquired using pClamp 10.4 software. For hypotonic swelling, extracellular solution consisted of the following (in mM): 90 NaCl, 2 CsCl, 1 MgCl2, 1 CaCl2, 10 HEPES, 10 mannitol, pH 7.4 with NaOH (210 mOsm/kg). The isotonic extracellular solution consisted of the same composition above but with 110 mM instead of 10 mM mannitol (300 mOsm/kg). The swell-activated current was elicited by perfusing cells with a hypotonic solution (210 mOsm/kg). […] For perforated-patch recordings in isolated human adipocytes, the intracellular solution was as above but without ATP and GTP, and contained 360 μg/ml Amphotericin B (Sigma). The holding potential was 0 mV. Voltage ramps from −100 to +100 mV (at 0.4 mV/ms) were applied every 4 s. The sampling interval was 100 μs and filtered at 10 kHz. For perforated-patch recordings, cells with a membrane resistance below 1 GΩ or access resistance above 20 MΩ were discarded. […]
(Patch clamp records ionic current or voltage across a cell membrane.)

In assay [2] the test system is pancreatic islets of T2D mice. Put plainly: Insulin secretion of treated T2D mice (serum insulin, islet perifusion GSIS). In kind it is in vivo, mouse. The following applies: islets of T2D KKAy mice, compared to Inactive 1. Here is the method: (§1) Mice were fasted for 6 h prior to glucose tolerance tests (GTT). Baseline glucose levels at 0 min timepoint (fasting glucose, FG) were measured from a blood sample collected from tail snipping using glucometer (Bayer Healthcare LLC). Either 1 or 0.75 g D-Glucose/kg body weight were injected (i.p.) for lean or HFD mice, respectively and glucose levels were measured at 5 or 7, 15, 30, 60, 90, and 120 min timepoints after injection. For insulin tolerance tests (ITTs), the mice were fasted for 4 h. Similar to GTTs, the baseline blood glucose levels were measured at 0 min timepoint and 15, 30, 60, 90, and 120 min timepoints post-injection (i.p.) of insulin (HumulinR, 1 U/kg bodyweight for lean mice or 1.25 U/kg body weight for HFD mice). […] The collected plasma was then measured for insulin content by using Ultra-Sensitive Mouse Insulin ELISA Kit (Crystal Chem, #90080). All mouse studies were performed in a blinded fashion.

The next assay concerns T2D and non-T2D mice. The assay is described as follows: Metabolic phenotyping: fasting glucose, GTT, ITT. The following applies: compared to Inactive 1. Here is the method:
All compounds were dissolved in Kolliphor® EL (Sigma, #C5135).
as §1

In assay [3] the target is T2, R103E-SWELL1 expressing HEK-293 cells (R103E O/E) (Homo sapiens, UniProt Q8IWT6, R103E).
T2 construct: P2A:EGFP (C); host or cells: HEK-293, Lipofectamine 2000, co-transfected with CMV-Cre; EGFP+ cells recorded
T2 sequence (Q8IWT6 whole entry R103E): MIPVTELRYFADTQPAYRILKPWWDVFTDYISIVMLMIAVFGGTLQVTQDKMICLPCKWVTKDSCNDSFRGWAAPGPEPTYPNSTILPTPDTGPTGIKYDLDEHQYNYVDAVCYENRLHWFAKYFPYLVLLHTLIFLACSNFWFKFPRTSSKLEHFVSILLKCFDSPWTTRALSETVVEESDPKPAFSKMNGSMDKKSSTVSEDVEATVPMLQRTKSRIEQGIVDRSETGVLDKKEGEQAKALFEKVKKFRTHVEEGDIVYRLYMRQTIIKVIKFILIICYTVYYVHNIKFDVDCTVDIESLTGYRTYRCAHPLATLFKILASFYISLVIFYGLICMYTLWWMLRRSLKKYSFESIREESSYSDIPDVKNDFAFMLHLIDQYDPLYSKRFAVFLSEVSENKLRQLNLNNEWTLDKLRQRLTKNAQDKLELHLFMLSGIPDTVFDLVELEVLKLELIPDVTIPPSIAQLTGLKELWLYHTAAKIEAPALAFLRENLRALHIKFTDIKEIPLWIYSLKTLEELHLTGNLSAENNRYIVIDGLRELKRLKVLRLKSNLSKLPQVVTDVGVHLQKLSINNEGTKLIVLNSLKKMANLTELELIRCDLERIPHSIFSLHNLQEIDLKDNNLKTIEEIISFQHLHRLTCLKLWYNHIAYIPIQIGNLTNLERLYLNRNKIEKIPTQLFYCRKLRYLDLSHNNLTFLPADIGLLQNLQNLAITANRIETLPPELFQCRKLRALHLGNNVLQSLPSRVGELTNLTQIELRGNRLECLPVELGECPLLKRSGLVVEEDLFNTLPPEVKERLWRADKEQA
Put plainly: ICl,SWELL inhibition in SWELL1-R103E overexpressing cells, patch-clamp. In kind it is cell-based. The following applies: R103E-SWELL1 overexpressing HEK-293 cells, compound applied at maximum current density; read-out: IC50 for ICl,SWELL inhibition, R103E O/E. The text has this: See also Fig. 6 for a schematic representation. […] For SWELL1-R103E overexpression experiments, HEK-293 cells were transfected with either control Cre plasmid (CMV-Cre, McDonnell Genome Institute in Washington University in St. Louis) or Cre plus R103E-GFP (CAG-LoxP-stop-LoxP-SWELL1-R103E/3XFlag:P2A:EGFP, Vector Biolabs) plasmid using Lipofectamine 2000 as per the manufacturer’s protocol. SWELL1-R103E expressing HEK-293 cells were identified by EGFP + fluorescence.

In assay [4] the target is Mus musculus SWELL1 (LRRC8a, leucine-rich repeat-containing protein 8a) (Mus musculus). Put plainly: cryo-EM structure; SWELL1 in MSP1E3D1 lipid nanodiscs (2:1:1 DOPE:POPC:POPS), 1 mg/mL SWELL1-MSP1E3D1 with 100 µM SN-407; 20 mM HEPES, 150 mM KCl, pH 7.4; C6 refinement, then symmetry expansion and relaxation.
The test system of assay [5] is T3, SWELL1 protein in 3T3-F442A adipocytes.
T3 construct: host or cells: 3T3-F442A preadipocytes and differentiated adipocytes (wild type)
Put plainly: SWELL1 protein under glucolipotoxic stress (palmitate + glucose). It counts as cell-based, murine. The following applies: 10 µM 96 h pretreatment, then 1 mM palmitate + 25 mM glucose 16 h. Here is the method: (§2) In the case of 3T3-F442A adipocytes, the WT and KO cells were treated with either vehicle (DMSO), 1 or 10 µM SN-40X (after 7–11 days of differentiation) for 96 h and then stimulated with 0 and 10 nM insulin/serum-containing media with vehicle (DMSO) or SN-40X for 15 min for SWELL1 detection. […] To simulate glucolipotoxicity, 8 mM sodium palmitate was dissolved in 18.4% fatty-acid free BSA at 37 °C in DMEM medium with 25 mM glucose to obtain a conjugation ratio of 1:3 palmitate:BSA[80].

Assay [6] shares this test system. The assay is described as follows: SWELL1 protein western blot in adipocytes. The following applies: 10 and 1 μM, 4 days, then 6 h serum starving. It counts as cell-based, murine. The procedure: as §2
Adipocytes were washed twice in ice-cold phosphate buffer saline and lysed in RIPA buffer (150 mM NaCl, 20 mM HEPES, 1% NP-40, 5 mM EDTA, pH 7.4) with proteinase/phosphatase inhibitors (Roche). The cell lysate was further sonicated in 10 s cycle intervals 2–3 times and centrifuged at 18,407×g for 30 min at 4 °C and repeated one more time to remove the excess fat. The supernatant was collected and further estimated for protein concentration using a DC protein assay kit (Bio-Rad). Fat and liver tissues were homogenized and suspended in RIPA buffer with inhibitors and further processed in a similar fashion as described above. HUVECs were also prepared in a similar fashion except the lysates were spun only once to remove the cells debris to obtain the clear supernatant. For islets, either human or mouse islets were washed twice with phosphate buffer saline (PBS) and lysed using RIPA buffer containing protease and phosphatase inhibitors. The lysate was further clarified by freezing in liquid nitrogen for about 10 s for three cycles. The supernatant was collected from the whole lysate centrifuged at 16,260×g for 20 min at 4 °C. […] For soleus muscle, the tissue was homogenized in a Bullet Blender homogenizer (Speed-9, Time-3 mins) in 8 volumes of ice-cold muscle homogenization buffer (50 mM Tris, 25 mM NaCl, 0.2% Nonidet P-40, 5 mM EGTA, 2.5 mM EDTA, 20 mM NaF, 20 mM Na4P2O7·10H2O, 2 mM Na3VO4, pH 7.4) supplemented with protease/phosphatase inhibitor (Roche). The homogenized lysate was centrifuged two times at 18,500×g for 20 min at 4 °C and supernatant was collected for protein estimation. Protein samples were further prepared by boiling in 2X or 4X Laemmli buffer. Approximately 10–60 µg of total protein was loaded in 4–15% gradient gel (Bio-Rad) for separation and protein transfer was carried out onto the PVDF membranes (Bio-Rad). Membranes were blocked in 5% BSA (or 5% milk for SWELL1) in TBST buffer (0.2 M Tris, 1.37 M NaCl, 0.2% Tween-20, pH 7.4) for 1 h and incubated with appropriate primary antibodies (5% BSA or milk) overnight at 4 °C. […] The images were further analyzed for band intensities using ImageJ software. […]

Setting [7] is: 8 weeks HFD mice, 5 mg/kg/day × 4 days.

As for `CCCCC1(C2CCCC2)Cc2cc(OCCCB(O)O)c(Cl)c(Cl)c2C1=O` (stereo not shown) [Inactive 3, (3-((2-butyl-6,7-dichloro-2-cyclopentyl-1-oxo-2,3-dihydro-1H-inden-5-yl)oxy)propyl)boronic acid], in assay [1], the IC50 turned out to be 18.3 µM.

On to `CCCCC1(C2CCCC2)Cc2cc(OCCCCCCC(=O)O)c(Cl)c(Cl)c2C1=O` (stereo not shown) [SN-407, 7-((2-butyl-6,7-dichloro-2-cyclopentyl-1-oxo-2,3-dihydro-1H-inden-5-yl)oxy)heptanoic acid], for which the GSIS entry in assay [2] is “increased”. Further, in the assay on T2D and non-T2D mice (T2D KKAy mice, 5 mg/kg i.p. 4 days), the “glucose tolerance (GTT AUC)” value was “improved”. Moreover, in assay [1], the “ICl,SWELL inhibitory activity compared to SN-401” value is “increased ICl,SWELL inhibitory activity” and the IC50 was 1.6 µM. The IC50 in assay [3] stood at 4.2 µM.

With `CCCCC1(C2CCCC2)Cc2cc(OCCCCC(=O)O)c(Cl)c(Cl)c2C1=O` (stereo not shown) [SN-403, 5-((2-butyl-6,7-dichloro-2-cyclopentyl-1-oxo-2,3-dihydro-1H-inden-5-yl)oxy)pentanoic acid], in the assay on T2D and non-T2D mice (setting [7]), the fasting blood glucose entry was “significantly reduced” and the glucose tolerance result is given as “improved”. The “ICl,SWELL inhibitory activity compared to SN-401” value in assay [1] was “increased ICl,SWELL inhibitory activity”.

Consider “Mus musculus SWELL1 (LRRC8a, leucine-rich repeat-containing protein 8a) (natural protein)”, for which the stoichiometry N (usually the number of molecules, sites or subunits per partner or assembly) in assay [4] was 6.

In the case of `O=C(O)CCCOc1cc2c(c(Cl)c1Cl)C(=O)C(C1CCCC1)C2` (stereo not shown) [Inactive 2, 4-((6,7-dichloro-2-cyclopentyl-1-oxo-2,3-dihydro-1H-inden-5-yl)oxy)butanoic acid], the “prevention of palmitate/glucose-induced reduction of SWELL1 protein” value in assay [5] is given as “not”. The “SWELL1 protein level relative to vehicle-treated controls” value in assay [6] is “did not significantly increase”. Also, the IC50 in assay [1] came to 10.6 µM.
